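How tested: cells in 96-well plates exposed to compound for 48 hours at five concentrations. TGI: total growth inhibition.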
Key:
Test in all cases: NCI anticancer screen, dose series, 48 h
786-0 renal = system: 786-0 renal
A498 renal = system: A498 renal
ACHN renal = system: ACHN renal
BT-549 breast = system: BT-549 breast
CAKI-1 renal = system: CAKI-1 renal
CCRF-CEM leukemia = system: CCRF-CEM leukemia
COLO 205 colon = system: COLO 205 colon
DU-145 prostate = system: DU-145 prostate
EKVX NSCLC = system: EKVX NSCLC
HCC-2998 colon = system: HCC-2998 colon
HCT-116 colon = system: HCT-116 colon
HCT-15 colon = system: HCT-15 colon
HOP-62 NSCLC = system: HOP-62 NSCLC
HOP-92 NSCLC = system: HOP-92 NSCLC
HS 578T breast = system: HS 578T breast
HT29 colon = system: HT29 colon
IGROV1 ovarian = system: IGROV1 ovarian
K-562 leukemia = system: K-562 leukemia
KM12 colon = system: KM12 colon
LOX IMVI melanoma = system: LOX IMVI melanoma
M14 melanoma = system: M14 melanoma
MALME-3M melanoma = system: MALME-3M melanoma
MCF7 breast = system: MCF7 breast
MDA-MB-231 breast = system: MDA-MB-231 breast
MDA-MB-435 = system: MDA-MB-435
MDA-N = system: MDA-N
MOLT-4 leukemia = system: MOLT-4 leukemia
NCI-H226 lung = system: NCI-H226 lung
NCI-H23 lung = system: NCI-H23 lung
NCI-H460 lung = system: NCI-H460 lung
NCI-H522 lung = system: NCI-H522 lung
NCI/ADR-RES ovarian = system: NCI/ADR-RES ovarian
OVCAR-3 ovarian = system: OVCAR-3 ovarian
OVCAR-4 ovarian = system: OVCAR-4 ovarian
OVCAR-5 ovarian = system: OVCAR-5 ovarian
OVCAR-8 ovarian = system: OVCAR-8 ovarian
PC-3 prostate = system: PC-3 prostate
RPMI-8226 leukemia = system: RPMI-8226 leukemia
RXF 393 renal = system: RXF 393 renal
SF-268 CNS = system: SF-268 CNS
SF-295 CNS = system: SF-295 CNS
SF-539 CNS = system: SF-539 CNS
SK-MEL-2 melanoma = system: SK-MEL-2 melanoma
SK-MEL-28 melanoma = system: SK-MEL-28 melanoma
SK-MEL-5 melanoma = system: SK-MEL-5 melanoma
SK-OV-3 ovarian = system: SK-OV-3 ovarian
SN12C renal = system: SN12C renal
SNB-19 CNS = system: SNB-19 CNS
SNB-75 CNS = system: SNB-75 CNS
SW-620 colon = system: SW-620 colon
T-47D breast = system: T-47D breast
TK-10 renal = system: TK-10 renal
U251 CNS = system: U251 CNS
UACC-257 melanoma = system: UACC-257 melanoma
UACC-62 melanoma = system: UACC-62 melanoma
UO-31 renal = system: UO-31 renal
A549 NSCLC = system: A549 NSCLC
HL-60(TB) leukemia = system: HL-60(TB) leukemia
SR leukemia = system: SR leukemia

Measured: TGI

C[C@H](CCC1=NCCN1)[C@H]1CC[C@H]2[C@@H]3[C@H](O)C[C@@H]4C[C@H](O)CC[C@]4(C)[C@H]3CC[C@]12C
28.3 µM: UACC-257 melanoma
26.7 µM: MDA-MB-435 | TK-10 renal
28.6 µM: M14 melanoma
40.9 µM: CAKI-1 renal
30 µM: ACHN renal
29.9 µM: SK-MEL-2 melanoma
24.7 µM: BT-549 breast
30.1 µM: HCT-15 colon | SW-620 colon
26.4 µM: HCT-116 colon
31.3 µM: T-47D breast
26.6 µM: OVCAR-3 ovarian
22.4 µM: SNB-75 CNS
21.6 µM: K-562 leukemia
35.3 µM: RPMI-8226 leukemia
32.3 µM: EKVX NSCLC
27.2 µM: SK-MEL-28 melanoma
24.3 µM: NCI-H460 lung
21.1 µM: COLO 205 colon
> 100 µM: NCI/ADR-RES ovarian
31.6 µM: RXF 393 renal
29 µM: OVCAR-8 ovarian
28.5 µM: HCC-2998 colon | HS 578T breast | MCF7 breast | NCI-H522 lung
21.8 µM: HOP-92 NSCLC
27.5 µM: OVCAR-5 ovarian
29.2 µM: MALME-3M melanoma
37 µM: SN12C renal
26 µM: SF-268 CNS
22.8 µM: LOX IMVI melanoma
29.7 µM: HOP-62 NSCLC
23.9 µM: IGROV1 ovarian
28.1 µM: OVCAR-4 ovarian
27.8 µM: UO-31 renal
33.1 µM: SK-OV-3 ovarian
32.9 µM: CCRF-CEM leukemia
28.9 µM: SF-295 CNS
25.5 µM: SF-539 CNS
27.3 µM: DU-145 prostate | MOLT-4 leukemia | NCI-H23 lung | SK-MEL-5 melanoma
30.2 µM: NCI-H226 lung
23.5 µM: UACC-62 melanoma
26.1 µM: A498 renal | SNB-19 CNS
10.4 µM: HT29 colon
32.7 µM: MDA-N
33.5 µM: MDA-MB-231 breast
27.7 µM: 786-0 renal | KM12 colon
26.5 µM: U251 CNS
21 µM: PC-3 prostate

Cc1ccc(/C=C2\N=C(N3CCCCC3)NC2=O)cc1
> 100 µM: 786-0 renal | A549 NSCLC | ACHN renal | BT-549 breast | CAKI-1 renal | CCRF-CEM leukemia | COLO 205 colon | DU-145 prostate | EKVX NSCLC | HCC-2998 colon | HCT-116 colon | HCT-15 colon | HL-60(TB) leukemia | HOP-62 NSCLC | HOP-92 NSCLC | HS 578T breast | HT29 colon | KM12 colon | LOX IMVI melanoma | M14 melanoma | MALME-3M melanoma | MCF7 breast | MDA-MB-231 breast | MDA-MB-435 | MDA-N | MOLT-4 leukemia | NCI-H226 lung | NCI-H23 lung | NCI-H522 lung | NCI/ADR-RES ovarian | OVCAR-3 ovarian | OVCAR-4 ovarian | OVCAR-5 ovarian | OVCAR-8 ovarian | PC-3 prostate | RPMI-8226 leukemia | RXF 393 renal | SF-268 CNS | SF-295 CNS | SF-539 CNS | SK-MEL-2 melanoma | SK-MEL-28 melanoma | SK-OV-3 ovarian | SN12C renal | SNB-19 CNS | SR leukemia | SW-620 colon | T-47D breast | TK-10 renal | U251 CNS | UACC-257 melanoma | UACC-62 melanoma | UO-31 renal

CC(=O)OC1/C(=C/c2ccc([N+](=O)[O-])cc2)C[C@H]2[C@@H]3CC=C4C[C@@H](OC(C)=O)CC[C@]4(C)[C@H]3CC[C@]12C (some centres not stated)
60.4 µM: RXF 393 renal
> 100 µM: 786-0 renal | A549 NSCLC | ACHN renal | BT-549 breast | CAKI-1 renal | COLO 205 colon | DU-145 prostate | EKVX NSCLC | HCC-2998 colon | HCT-116 colon | HCT-15 colon | HOP-62 NSCLC | HOP-92 NSCLC | HS 578T breast | HT29 colon | IGROV1 ovarian | KM12 colon | LOX IMVI melanoma | M14 melanoma | MALME-3M melanoma | MCF7 breast | MDA-MB-231 breast | MDA-MB-435 | MDA-N | NCI-H226 lung | NCI-H23 lung | NCI-H460 lung | NCI-H522 lung | NCI/ADR-RES ovarian | OVCAR-3 ovarian | OVCAR-4 ovarian | OVCAR-5 ovarian | OVCAR-8 ovarian | PC-3 prostate | RPMI-8226 leukemia | SF-268 CNS | SF-295 CNS | SF-539 CNS | SK-MEL-2 melanoma | SK-MEL-28 melanoma | SK-MEL-5 melanoma | SK-OV-3 ovarian | SN12C renal | SNB-19 CNS | SW-620 colon | T-47D breast | U251 CNS | UACC-257 melanoma | UACC-62 melanoma | UO-31 renal
> 80.3 µM: TK-10 renal
> 20.7 µM: SR leukemia
13.3 µM: HL-60(TB) leukemia
> 96.2 µM: A498 renal
> 64.8 µM: CCRF-CEM leukemia

N#C/C(=C1\N=C(c2ccccc2O)Oc2ccccc21)c1ccc([N+](=O)[O-])cc1
> 100 µM: 786-0 renal | A498 renal | A549 NSCLC | ACHN renal | BT-549 breast | CAKI-1 renal | CCRF-CEM leukemia | COLO 205 colon | DU-145 prostate | EKVX NSCLC | HCC-2998 colon | HCT-116 colon | HCT-15 colon | HL-60(TB) leukemia | HOP-62 NSCLC | HOP-92 NSCLC | HS 578T breast | HT29 colon | IGROV1 ovarian | K-562 leukemia | KM12 colon | LOX IMVI melanoma | M14 melanoma | MALME-3M melanoma | MCF7 breast | MDA-MB-231 breast | MDA-MB-435 | MDA-N | MOLT-4 leukemia | NCI-H226 lung | NCI-H23 lung | NCI-H460 lung | NCI/ADR-RES ovarian | OVCAR-3 ovarian | OVCAR-4 ovarian | OVCAR-5 ovarian | OVCAR-8 ovarian | PC-3 prostate | RPMI-8226 leukemia | RXF 393 renal | SF-268 CNS | SF-295 CNS | SF-539 CNS | SK-MEL-2 melanoma | SK-MEL-28 melanoma | SK-MEL-5 melanoma | SK-OV-3 ovarian | SN12C renal | SNB-19 CNS | SNB-75 CNS | SW-620 colon | T-47D breast | TK-10 renal | U251 CNS | UACC-257 melanoma | UACC-62 melanoma | UO-31 renal

Source: PubChem BioAssay (NCI)
